Assay results from the NIST ThermoML archive (doi:10.1021/je400951k).

C[C@H]1CC[C@@H]2C[C@H]1C2(C)C (racemic) [(1RS,2SR,5RS)-2,6,6-trimethylbicyclo[3.1.1]heptane]
Liquid, Closed cell (Static) method
Settings | vapor or sublimation pressure [kPa]
330.27 K | 2.04
338.5 K | 3.03
344.71 K | 4.015
349.8 K | 4.98
357.77 K | 7.015
360.94 K | 8.015
366.78 K | 10.04
373.45 K | 13.04
379.03 K | 16.05
385.72 K | 20.04
392.24 K | 25.05
397.94 K | 30.04
407.54 K | 40.03
415.01 K | 50.03

CC(=O)O[C@@H]1C[C@H]2CC[C@]1(C)C2(C)C (relative stereo)
Liquid, Closed cell (Static) method
Settings | vapor or sublimation pressure [kPa]
381.09 K | 2.004
390.08 K | 3.021
397.1 K | 4.013
402.69 K | 5.01
407.45 K | 6.023
411.6 K | 7.027
414.92 K | 8.014
418.66 K | 9.042
421.67 K | 10.03
427.93 K | 12.04
434.61 K | 15.02
442.35 K | 19.12
452.64 K | 26.01
457.89 K | 30.15
463.13 K | 35
468.12 K | 40.12
472.63 K | 45.25

C=C(C)C1CC=C(C)CC1 (stereo unspecified) [1-methyl-4-(1-methylethenyl)cyclohexene]
Liquid, Closed cell (Static) method
Settings | vapor or sublimation pressure [kPa]
346.96 K | 3.01
353.19 K | 4.013
358.22 K | 5.008
362.25 K | 6.002
366.08 K | 7.018
369.31 K | 8.018
372.54 K | 9.043
375.27 K | 10.02
379.93 K | 12.04
386.12 K | 15.04
394.56 K | 20.01
401.29 K | 25.04
407.1 K | 30.09
416.21 K | 39.91
420.21 K | 44.8

C=C1C2CCC(C2)C1(C)C (stereo unspecified) [2,2-dimethyl-3-methylenebicyclo[2.2.1]heptane]
Settings | vapor or sublimation pressure [kPa]
309.7 K, Metastable liquid, Closed cell (Static) method | 1.007
322.72 K, Closed cell (Static) method, Liquid | 2.026
331.06 K, Closed cell (Static) method, Liquid | 3.053
337.27 K, Closed cell (Static) method, Liquid | 4.056
342.04 K, Closed cell (Static) method, Liquid | 5.043
346.21 K, Closed cell (Static) method, Liquid | 6.007
350.07 K, Closed cell (Static) method, Liquid | 7.068
353.23 K, Closed cell (Static) method, Liquid | 8.029
355.98 K, Closed cell (Static) method, Liquid | 9.003
358.83 K, Closed cell (Static) method, Liquid | 10.07
365.69 K, Closed cell (Static) method, Liquid | 13.05
369.58 K, Closed cell (Static) method, Liquid | 15.06
378.51 K, Closed cell (Static) method, Liquid | 20.12
384.98 K, Closed cell (Static) method, Liquid | 25
390.65 K, Closed cell (Static) method, Liquid | 29.95
399.95 K, Closed cell (Static) method, Liquid | 40.04
407.61 K, Closed cell (Static) method, Liquid | 50.02

C=CC(C)CCCC(C)(C)O (stereo unspecified) [2,6-dimethyl-7-octen-2-ol]
Liquid, Closed cell (Static) method
Settings | vapor or sublimation pressure [kPa]
351.52 K | 0.82
354.37 K | 1.015
360.41 K | 1.516
365.22 K | 2.03
372.31 K | 3.024
377.4 K | 4.017
381.86 K | 5.015
388.97 K | 7.03
394.58 K | 9.035
401.82 K | 12.04
407.61 K | 15.04
415.17 K | 20.03
421.59 K | 25.04

C=CC(C)CCC=C(C)C (stereo unspecified) [3,7-dimethyl-1,6-octadiene]
Liquid, Closed cell (Static) method
Settings | vapor or sublimation pressure [kPa]
316.5 K | 1.26
322.57 K | 1.76
327.44 K | 2.26
334.96 K | 3.26
340.66 K | 4.26
345.44 K | 5.26
349.51 K | 6.26
356.16 K | 8.25
361.68 K | 10.23
373.78 K | 16.25
379.02 K | 20.26
385.62 K | 25.26
391.11 K | 30.26

CCCCCCCCO [octan-1-ol]
Liquid, Closed cell (Static) method
Settings | vapor or sublimation pressure [kPa]
358.05 K | 1.088
363.99 K | 1.527
368.73 K | 2.016
381.98 K | 4.073
393.36 K | 7.08
401.09 K | 10.04
410.79 K | 15.04
418.15 K | 20.03
429.75 K | 30.2

O [water]
Liquid, Closed cell (Static) method
Settings | vapor or sublimation pressure [kPa]
292.54 K | 2.16
303.48 K | 4.43
310.23 K | 6.19
315.78 K | 8.497
319.82 K | 10.5
327.62 K | 15.71
334.02 K | 20.83
343.07 K | 30.04
